Experimental data from PubChem BioAssay (NCI).
Where “and” joins values, the source holds several entries; their conditions need not be identical. Identical values can stand only once.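 Cells were grown in 96-well plates and exposed to each compound for 48 hours at five concentrations; endpoints were interpolated linearly between bracketing concentrations, or set to the highest concentration if not reached. GI50: concentration for 50% inhibition of growth. TGI: concentration producing complete growth inhibition.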

Tests used:
Test in all cases: NCI-60 cell line screen, 48 h
A549 NSCLC = tested on: A549 NSCLC
COLO 205 colon = tested on: COLO 205 colon
HOP-92 NSCLC = tested on: HOP-92 NSCLC
KM12 colon = tested on: KM12 colon
M14 melanoma = tested on: M14 melanoma
MCF7 breast = tested on: MCF7 breast
OVCAR-3 ovarian = tested on: OVCAR-3 ovarian
SNB-19 CNS = tested on: SNB-19 CNS
T-47D breast = tested on: T-47D breast
SR leukemia = tested on: SR leukemia

Compound	GI50 (A549 NSCLC) [µM]	TGI (A549 NSCLC)	GI50 (COLO 205 colon)	TGI (COLO 205 colon) [µM]	TGI (HOP-92 NSCLC) [µM]	GI50 (KM12 colon)	TGI (KM12 colon)	GI50 (M14 melanoma) [µM]	TGI (M14 melanoma) [µM]	GI50 (MCF7 breast) [µM]	TGI (MCF7 breast) [µM]	GI50 (OVCAR-3 ovarian)	TGI (OVCAR-3 ovarian)	GI50 (SNB-19 CNS) [µM]	TGI (SNB-19 CNS) [µM]	GI50 (T-47D breast) [µM]	TGI (T-47D breast) [µM]	GI50 (HOP-92 NSCLC) [µM]	GI50 (SR leukemia) [µM]	TGI (SR leukemia) [µM]
CN(NC(=O)CC(=O)NN(C)C(=S)c1ccc(Cl)cc1)C(=S)c1ccc(Cl)cc1	3.86	71.7 µM	23 µM	48.5	9.05	16.9 µM	66.4 µM	14.1	59.3	18	> 100	13 µM	46.4 µM	23.1	> 100	21.8	> 100			
C/C(=N\Nc1cccc(Cl)n1)c1ccccn1	0.932	> 100 µM	0.38 µM	> 21.5	21.1	0.548 µM	> 100 µM	0.737	14.3	2	> 100	0.379 µM	13.3 µM	1.23	> 100	1.09	13.1	1.32	0.421	> 44.2
O=C(Nc1ccc(S(=O)(=O)NC2CCCCCC2)cc1)C(c1ccccc1)S(=O)(=O)c1ccc(F)cc1 (configuration not stated)	0.854	2.9 µM			3.9	0.321 µM	1.96 µM	0.514	2.55	0.124	1.61	0.367 µM	2.85 µM	0.622	37.2	0.717	4.83	0.845	0.41	4.42
CC(=O)N[C@@H](Cc1ccc(OP(=O)(O)O)cc1)C(=O)N[C@H]1CCC(=O)N2CCC[C@@H](C(=O)NCc3ccc(O)cc3)N2C1=O	> 25	> 25 µM	> 25 µM	> 25		> 25 µM	> 25 µM	> 25	> 25	> 25	> 25	> 25 µM	> 25 µM	> 25	> 25	> 25	> 25		> 25	> 25
Cc1c(N2C(=O)/C(=C\c3ccc(N(C)C)cc3)N=C2c2ccccc2)c(=O)n(-c2ccccc2)n1C	79.1	> 100 µM	43.7 µM	> 100	> 100	77.8 µM	> 100 µM	> 100	> 100	25.7	> 100	> 70.6 µM	> 100 µM	> 100	> 100	19.3	> 87.2	31.8	58.8	> 100
O=C1c2cccc3cc([N+](=O)[O-])cc(c23)C(=O)N1O		> 100 µM		> 100	> 100		61.7 µM		> 100		91.8		> 100 µM		> 100		> 100			> 100
CCN1C(=O)N(CC)C2C1NN=c1s/c(=C\c3ccccc3)c(=O)n12 (configuration not stated)	0.305	> 100 µM	0.193 µM	0.657	> 100	0.0705 µM	> 100 µM	0.104	> 100	0.0463	> 100	0.0561 µM	0.354 µM	0.537	> 100	0.519	> 100	29.7	0.0531	> 49.2
COc1cc(C2C(C#N)=C(N)Oc3cc4c(cc32)OCO4)cc2c1OCO2 (configuration not stated)	0.384	> 100 µM	0.308 µM	1.02	46.8	0.206 µM	> 46.6 µM	0.418	> 100	0.187	> 75	0.0928 µM	0.35 µM	0.709	> 100	3.38	> 100	0.407	0.0696	> 100
C[C@@H](Oc1cc(-c2cnn(C3CC4(CCCNC4)C3)c2)cnc1N)c1c(Cl)ccc(F)c1Cl (some centres not stated)	1.22	4.12 µM	0.384 µM	1.5	3.42	0.0485 µM	1.32 µM	1.25	2.66	0.363	1.85	2.02 µM	5.08 µM	3.32	14.4	1.61	3.42	0.807	0.0827	1.41
Cc1cc2nc3c4ccccc4n(CCN(C)C)c3nc2cc1C	1.28	11.5 µM	1.29 µM	4.49	8.85	1.93 µM	9.8 µM	1.51	3.36	1.41	7.14	1.91 µM	7.28 µM	2.33	12.3	2.8	12.6	1.36		
Brc1ccc(Br)nn1	12.5	32.4 µM	2.12 µM	3.77	3.6	12 µM	26.1 µM	1.39	2.82	1.21	2.64			3.77	15.5	1.36	3.77	1.8	0.439	3.52
NC(=O)NC(=O)C1CCCCC1C(=O)O (configuration not stated)		> 100 µM		> 100	> 100		> 100 µM		> 100		> 100		> 100 µM		> 100		> 100			
CC[C@@]1(OC(=O)CN)C(=O)OCc2c1cc1n(c2=O)Cc2cc3c(N)c4c(cc3nc2-1)OCO4	0.000195	0.233 µM and 1.01 µM	0.0419 µM and 0.11 µM	0.961		0.0136 µM and 0.0192 µM	0.182 µM and 1.27 µM	< 0.0001	0.0139	< 0.0001		0.0352 µM and 0.0116 µM	0.481 µM and 0.336 µM	0.000124	> 100		> 100		< 0.0001	0.159
COc1cccc(Nc2nccc(Nc3ccc4[nH]ncc4c3)n2)c1	1.71	3.74 µM	1.57 µM	3.26	4.14	1.64 µM	4.81 µM	1.35	2.81	1.26	3.11	1.58 µM	4.07 µM			1.05	3.12	1.45	1.34	4.93
